Laboratory results as given in US4904664A, “Benzene compounds having two pyridazinone substituents” (Smith Kline & French Laboratories Limited, priority 1985, dated 1990).

Key:
ventricular strips = experiment: Cardiac stimulant activity in vitro, force of contraction of guinea pig ventricular strips; assay type: cell-based, Guinea pigs; conditions: Cavia porcellus, read-out: EC50 (50% increase in the force of contraction of the ventricular strips); concentration in bathing fluid
Procedure: The compounds of formula (I) and their pharmaceutically acceptable salts are tested for cardiac stimulant activity following a procedure based on that of S. C. Verma and J. H. McNeill (J. Pharm. & Exp. Therapeutics, 200, 352-362 (1977)). Guinea pigs (500-700 g) of either sex are sacrificed and the hearts are quickly removed and transferred to a dissecting dish containing oxygenated bathing fluid. While in the bathing medium, the right ventricle is cut into two strips. The strips are each suspended in a 50 ml bath containing Krebs Henseleit solution at 37° C., and the bath is bubbled with 95% oxygen and 5% carbon dioxide. The ventricular strips are electrically stimulated at a frequency of 1.0 Hz, at double the threshold voltage. A resting tension of 1.0 g is applied to the strips and the tension is kept constant by readjustment during an equilibration period of 60 minutes. The bathing fluid is frequently changed during this period. When a steady base line is obtained, a compound under test is added to the bathing fluid and a cumulative concentration response curve is plotted.

[1] = tested on: left ventricular contractility (left ventricular dp/dt max); experiment: Cardiac stimulant activity in vivo, left ventricular dp/dt max in anaesthetised cats; conditions: Felis catus, iv, read-out: ED50 (dose to increase left ventricular dp/dt max by 50%), i.v., pretreated with pempidine and propranolol
PDE (Peak III) = experiment: Inhibition of phosphodiesterase PDE (Peak III) from cat heart; conditions: 1 μM cyclic AMP
Procedure: The enzyme was assayed by incubation at 37° for 4-30 min in 50 mM Tris, 5 mM MgCl2, pH 7.5 with [3-H]cyclic nucleotide (4×10^5 disintegrations min^-1) and [14-C] nucleotide 5' monophosphate (3×10^3 disintegrations min^-1). […] The reaction mixture was diluted with 0.5 ml 100 mM HEPES (N-2-Hydroxyethylpiperazine-N'-2-ethanesulfonic acid), 100 mM NaCl, pH 8.5, and applied to the column. […] The recovery of product as judged by [14-C] recovery was approximately 80%. All assays were linear with time of incubation and concentration of enzyme over the range used in these experiments.

[2] = tested on: hindquarters perfusion pressure; experiment: Vasodilator activity in autoperfused anaesthetised cat hind quarters; assay type: in vivo; conditions: Felis catus, iv, constant blood flow, i.v., read-out: ED15 (i.v. dose to decrease hindquarters perfusion pressure by 15%)
Procedure: The compounds of the Examples were tested in autoperfused anaesthetised cat hind quarters (autoperfused at constant blood flow). The i.v. dose to decrease hindquarters perfusion pressure (vasodilatation) by 15% is given as the ED15.

[3] = tested on: histamine-induced bronchoconstriction; experiment: Bronchodilatation in vivo, histamine-induced bronchoconstriction in anaesthetised guinea-pigs; parameters: species or system Dunkin Hartley strain; conditions: n=1
Procedure: Male guinea-pigs of the Dunkin Hartley strain (500-600 g) were anaesthetised with Sagatal (pentobarbital sodium) (60 mg/kg i.p.). Airway resistance was measured using a modification of the classical Konzett-Rossler technique (Versuchsanordnung zu Untersuchungen an der Bronchialmuskulatur. Naunyn-Schmiedebergs Arch. Exp. Path. Pharmak., 195: pp 71-74, (1940)). A dose of histamine which gave approximately 150% increase in airway resistance was selected for i.v. administration. Bolus doses of the compound of Example 6 were administered (i.v.) on minute before the histamine challenge (n=1).

Compound	EC50 (ventricular strips)	ED50 [1]	IC50 (PDE (Peak III))	ED15 [2]	ED50 ([3]; Cavia porcellus, iv, read-out: ED50 (dose which would reduce the histamine bronchoconstriction by 50%), i.v. one minute before histamine challenge, calculated by interpolation)	effect on histamine-induced bronchoconstriction ([3]; i.v., in words)
O=c1ccc(-c2ccc(-c3ccc(=O)[nH]n3)cc2)n[nH]1 [Example 1, 1,4-Bis(6-oxo-1,6-dihydropyridazin-3-yl)benzene]	900 nM	0.04 µmol/kg	330 nM	–	–	–
O=C1CCC(c2ccc(C3=NNC(=O)CC3)cc2)=NN1 [Example 2, 1,4-Bis(6-oxo-1,4,5,6-tetrahydropyridazin-3-yl)benzene]	–	0.55 µmol/kg	640 nM	0.12 µmol/kg	–	–
CC1CC(=O)NN=C1c1ccc(C2=NNC(=O)CC2C)cc1 (stereo not drawn) [Example 3, 1,4-Bis(4-methyl-6-oxo-1,4,5,6-tetrahydropyridazin-3-yl)benzene]	–	0.06 µmol/kg	110 nM	0.04 µmol/kg	–	–
Cc1cc(=O)[nH]nc1-c1ccc(-c2n[nH]c(=O)cc2C)cc1 [Example 4, 1,4-Bis(4-methyl-6-oxo-1,6-dihydropyridazin-3-yl)benzene]	–	–	37500 nM	–	–	–
O=c1ccc(-c2cccc(-c3ccc(=O)[nH]n3)c2)n[nH]1 [Example 5, 1,3-Bis(6-oxo-1,6-dihydropyridazin-3-yl)benzene]	–	3.16 µmol/kg	3900 nM	3.23 µmol/kg	–	–
CC1CC(=O)NN=C1c1ccc(-c2ccc(=O)[nH]n2)cc1 (stereo not drawn) [Example 6, 6-[4-(4-Methyl-6-oxo-1,4,5,6-tetrahydropyridazin-3-yl)phenyl]pyridazin-3(2H)-one]	–	0.02 µmol/kg	70 nM	0.01 µmol/kg	0.033 µmol/kg	reduced the histamine-induced bronchoconstriction
